Results taken from patent publication US20170080063A1, “HIGHLY SOLUBLE AQUAPORIN-4 EXTRACELLULAR LOOP C PEPTIDE IMMUNIZATION FOR TREATMENT OF NEUROMYELITIS OPTICA” (THE JOHNS HOPKINS UNIVERSITY, priority 2014, published 2017).
“Also recorded” adds a separate entry of the source.

Columns and labels:
mice = experiment: Neurological symptoms / clinical phenotype in mice given peptide; format: in vivo, mouse; conditions: for neurological symptoms (paralysis from spinal cord inflammation, visual impairment from optic nerve inflammation): mice administered the peptide; for clinical phenotype / autoimmune neurological disease after immunization: immunized AQP4 null mice
AQP4 null mice = experiment: Antibody production against AQP4 extracellular loop peptides after immunization; format: in vivo, mouse; conditions: AQP4 null mice immunized with the peptides
[1] = system: IL-17 and interferon-gamma (IFN-γ) cytokine-producing cells; experiment: ELISPOT assay of cytokine-producing cells; format: cell-based, mouse
Protocol: ELISPOT assay was used to determine the frequency of cytokine-producing cells in polarized and unpolarized cell cultures. The day before cells were to be harvested from immunized AQP4 null mice, the wells of an immobilon P-bottom 96-well plates (Multiscreen®HTS, 0.45 μm pore size; EMB Millipore, USA) were pre-wet with 35% ethanol for 30 seconds, washed three times with coating buffer, and coated with 50 μl of a 1:250 dilution of capture antibody, anti-IL17 (Th17), provided with ELISPOT Ready-Set-Go kits (eBioscience). Plates were covered and incubated overnight at 4° C. Wells were then washed twice with coating buffer and once with complete media; plates were stored in the incubator until cells were prepared. Spleen and lymph node cells were prepared as described above and prepared with and without polarizing conditions. Harvested cells were 2-fold serially diluted in media containing 3×10^7 irradiated splenocytes (irradiated with 3,500 rads) as antigen-presenting cells (APCs); APCs mixed 12:1 with 1.25×10^5 lymph node cells per well yielded the most well-defined spots. After overnight in culture, wells were washed (TBS+0.05% Tween®-20). Detection antibody was diluted 1:250 in diluents provided in the kit and 50 μl applied to each well for 2 hours at RT. After washing, streptavidin-alkaline phosphatase was added to each well (1:2500; Sigma) for 45 minutes. After further washing, signal was developed with development solution containing BCIP and NBT (i.e. 150 mM Tris-HCl, 5 mM MgCl2, 100 mM NaCl, pH9.5 supplemented with 4 mM levamisole (Sigma), 0.15 mg/ml 5-bromo-4-chloro-3-indolyl-phosphate, and 0.36 mg/ml 4-nitro blue tetrazolium chloride (Roche) for 10 minutes at room temperature in the dark. Reaction was stopped by washing with PBS then distilled H2O before air drying. Spots were imaged with an Immunospot Series 3 Analyzer (Cellular Technology, Ltd.) and counted using Image J and the “find Maxima” function. Results are expressed as the mean of triplicate values (±standard error of the mean, SEM) adjusted to per 10^6 cells per well. Student's t-test was performed on data; p<0.05 was considered statistically significant.

T cells = experiment: T cell proliferation assay (3H-thymidine incorporation) with spleen cells of immunized mice; format: cell-based, mouse; conditions: for T cell response against the peptide: T cells from AQP4 null mice immunized with AQP4 loop peptides
[2] = after polarization to Th17 phenotype, exposed to peptide
[3] = after polarization to Th17 phenotype, exposed to peptide, listed as AQP4135-53
[4] = unpolarized cell culture exposed to peptide, versus no stimulation
[5] = unpolarized cell culture exposed to peptide, versus no stimulation, listed as AQP4135-53

Substance	neurological symptoms (paralysis from spinal cord inflammation, visual impairment from optic nerve inflammation) (mice)	antibody production against the loop peptide (AQP4 null mice)	T cell response against the peptide (T cells)	clinical phenotype / autoimmune neurological disease after immunization (mice)	other results
GILYLVTPPSVVGGLGVTMV [SEQ ID NO: 9, reference compound]	no such neurological symptoms	–	–	–	–
GNWENH (listed as Homo sapiens) [loop E, AQP4 extracellular loop E peptide (human 212-30 used)]	–	no evidence of antibody production	–	–	–
GTEKPLPV (listed as Homo sapiens) [loop A, AQP4 extracellular loop A peptide (human 56-69 used)]	–	no evidence of antibody production	–	–	–
LVTPPSVVGGLGVTMVHGN [SEQ ID NO: 8]	development of phenotypes	no evidence of antibody production	remarkable T cell response; also recorded: robust T cell response; also recorded: robust reaction	did not develop autoimmune neurological disease	number of IFN-γ producing cells [1, 2]: barely detectable; number of IL-17 producing cells [1, 2]: doubled; number of IFN-γ producing cells [1, 3]: nearly undetectable; number of IL-17 producing cells [1, 3]: almost doubled; number of IFN-γ producing cells [1, 4]: significant number; number of IL-17 producing cells [1, 4]: significant number; number of IFN-γ producing cells [1, 5]: significant levels; number of IL-17 producing cells [1, 5]: significant levels
MOG peptide 35-55: myelin-oligodendrocyte glycoprotein (MOG) peptide 35-55 (MEVGWYRSPFSRVVHLYRNGK; UniProt Q61885 63-83, looked up, fragment) [reference compound]	–	–	–	–	T cell proliferative activity (incorporation of tritiated-thymidine) (T cells; T cells from control wildtype mice (wt-MOG) immunized with MOG peptide 35-55): showed proliferative activity
TPPSVVGGLGVTMVHGNLTAG (listed as Homo sapiens) [loop C, peptide corresponding to the second extracellular loop of AQP4]	–	No evidence of antibody production	robust T cell response	no clinical phenotype	T cell response against the peptide (T cells; listed as loop C peptide): robust T cell response; also recorded: stimulated a T cell response
